Experimental data taken from US9695155B2, “Herbicidal substituted pyrimidinyloxy benzene compounds” (E. I. DU PONT DE NEMOURS AND COMPANY, priority 2013, dated 2017).

Assays:
barnyardgrass [1] = assay: Test C postemergence; format: in vivo, Echinochloa crus-galli; conditions: for Plant response rating, Barnyardgrass: Postemergence
Outline: (§1)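 Plants were kept under greenhouse conditions for 13–15 days following spray. Pre-emergent application went to soil (loam–sand), post-emergent to foliage at 1–4 leaves. Evaluation: visual, percent control against untreated checks.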

morningglory [2] = assay: Test A preemergence; format: in vivo, Ipomoea spp.
Outline: (§2)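 Scoring: eye-based comparison with untreated controls, 0 for no effect through 100 for complete control, at about day 10. Treatments: directed soil spray preemergence; foliar spray postemergence on 2–10 cm plants at the one- to two-leaf stage. Medium: loam soil with sand.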

corn = assay: Test A preemergence; format: in vivo, Zea mays
Outline: as §2

johnsongrass = assay: Test C postemergence; format: in vivo, Sorghum halepense; conditions: for Plant response rating, Johnsongrass: Postemergence
Outline: as §1

barnyardgrass [3] = assay: Test A preemergence; format: in vivo, Echinochloa crus-galli
Outline: as §2

large (Lg) crabgrass = assay: Test C postemergence; format: in vivo, Digitaria sanguinalis; conditions: for Plant response rating, Crabgrass, Large: Postemergence
Outline: as §1

yellow nutsedge = assay: Test C postemergence; format: in vivo, Cyperus esculentus; conditions: for Plant response rating, Nutsedge, Yellow: Postemergence, scale 0 to 100 (0 no effect, 100 complete control)
Outline: as §1

oilseed rape = assay: Test C postemergence; format: in vivo, Brassica napus; conditions: for Plant response rating, Oilseed Rape: Postemergence, scale 0 to 100 (0 no effect, 100 complete control)
Outline: as §1

sedge, umbrella = assay: Test B flooded paddy test; format: in vivo, Cyperus difformis; conditions: Flood, 250 g ai/ha; 0 to 100 scale where 0 is no effect and 100 is complete control
Outline: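 Evaluation is visual, against untreated controls, 13 to 15 days after treatment. Before treatment, plants reached the 2-leaf stage; pots were then flooded 3 cm deep, compound was added to the water, and that level was maintained. Ratings run 0 to 100, with 100 meaning complete control.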

morningglory [4] = assay: Test C postemergence; format: in vivo, Ipomoea coccinea; conditions: for Plant response rating, Morningglory: Postemergence, scale 0 to 100 (0 no effect, 100 complete control)
Outline: as §1

wheat [5] = assay: Test A preemergence; format: in vivo, Triticum aestivum; conditions: 125 g ai/ha, 0 to 100 scale where 0 is no effect and 100 is complete control
Outline: as §2

kochia = assay: Test C postemergence; format: in vivo, Kochia scoparia; conditions: for Plant response rating, Kochia: Postemergence
Outline: as §1

blackgrass = assay: Test C postemergence; format: in vivo, Alopecurus myosuroides; conditions: for Plant response rating, Blackgrass: Postemergence
Outline: as §1

wheat [6] = assay: Test A postemergence; format: in vivo, Triticum aestivum; conditions: 0 to 100 scale where 0 is no effect and 100 is complete control
Outline: as §2

morningglory [7] = assay: Test A postemergence; format: in vivo, Ipomoea spp.; conditions: 0 to 100 scale where 0 is no effect and 100 is complete control
Outline: as §2

[8] = 16 g ai/ha, postemergence, visual rating, scale 0 to 100 (0 no effect, 100 complete control), 13 to 15 days
[9] = 31 g ai/ha, scale 0 to 100 (0 no effect, 100 complete control), 13 to 15 days
[10] = 62 g ai/ha, scale 0 to 100 (0 no effect, 100 complete control)
[11] = 125 g ai/ha, 0 to 100 scale where 0 is no effect and 100 is complete control
[12] = 500 g ai/ha, 0 to 100 scale, 0 no effect, 100 complete control, approx. 10 days

Fc1cnc(Oc2cccc(C(F)F)c2-n2cc(Cl)cn2)nc1 [Compound 94]
Barnyardgrass plant response rating (barnyardgrass [1]; [8]): 10
Plant response rating (0 to 100), Barnyardgrass (barnyardgrass [1]; 125 g ai/ha, postemergence): 10
Plant response rating, Barnyardgrass (barnyardgrass [1]; [9]): 10
Plant response rating, Barnyardgrass (barnyardgrass [1]; [10]): 10
Plant response rating, Morningglory (morningglory [2]; [11]): 40
Morningglory plant response rating (morningglory [2]; [12]): 90
Plant response rating, Corn (corn; [11]): 0
Corn plant response rating (corn; [12]): 30
Johnsongrass plant response rating (johnsongrass; [8]): 5
Plant response rating (0 to 100), Johnsongrass (johnsongrass; 125 g ai/ha, postemergence): 5
Plant response rating, Johnsongrass (johnsongrass; [9]): 5
Plant response rating, Johnsongrass (johnsongrass; [10]): 5
Plant response rating, Barnyardgrass (barnyardgrass [3]; [11]): 80
Barnyardgrass plant response rating (barnyardgrass [3]; [12]): 100
Crabgrass, Large plant response rating (large (Lg) crabgrass; [8]): 5
Plant response rating (0 to 100), Crabgrass, Large (large (Lg) crabgrass; 125 g ai/ha, postemergence): 10
Plant response rating, Crabgrass, Large (large (Lg) crabgrass; [9]): 5
Plant response rating, Crabgrass, Large (large (Lg) crabgrass; [10]): 10
Plant response rating (0 to 100), Nutsedge, Yellow (yellow nutsedge; 125 g ai/ha, postemergence): 10
Plant response rating, Nutsedge, Yellow (yellow nutsedge; 31 g ai/ha, 13 to 15 days): 5
Plant response rating, Nutsedge, Yellow (yellow nutsedge; 62 g ai/ha): 45
Plant response rating (0 to 100), Oilseed Rape (oilseed rape; 125 g ai/ha, postemergence): 80
Plant response rating, Oilseed Rape (oilseed rape; 31 g ai/ha, 13 to 15 days): 50
Plant response rating, Oilseed Rape (oilseed rape; 62 g ai/ha): 50
Plant response rating, Sedge, Umbrella (sedge, umbrella): 30
Plant response rating (0 to 100), Morningglory (morningglory [4]; 125 g ai/ha, postemergence): 55
Plant response rating, Morningglory (morningglory [4]; 31 g ai/ha, 13 to 15 days): 75
Plant response rating, Morningglory (morningglory [4]; 62 g ai/ha): 75
Plant response rating, Wheat (wheat [5]): 0
Kochia plant response rating (kochia; [8]): 30
Plant response rating (0 to 100), Kochia (kochia; 125 g ai/ha, postemergence): 90
Plant response rating, Kochia (kochia; [9]): 80
Plant response rating, Kochia (kochia; [10]): 90
Blackgrass plant response rating (blackgrass; [8]): 0
Plant response rating (0 to 100), Blackgrass (blackgrass; 125 g ai/ha, postemergence): 5
Plant response rating, Blackgrass (blackgrass; [9]): 5
Plant response rating, Blackgrass (blackgrass; [10]): 5
Plant response rating, Wheat (wheat [6]; 125 g ai/ha): 0
Plant response rating, Wheat (wheat [6]; 500 g ai/ha): 50
Plant response rating, Morningglory (morningglory [7]; 125 g ai/ha): 80
Plant response rating, Morningglory (morningglory [7]; 500 g ai/ha): 100
